Test results reported in article PMC11544888, “Sustainable Primary Cell Banking for Topical Compound Cytotoxicity Assays: Protocol Validation on Novel Biocides and Antifungals for Optimized Burn Wound Care” (European Burn Journal, 2024).
Values after ≈ are worked out from the molar mass of the structure shown.

Assays:
[1] = test system: cultured cells (HaCaT keratinocytes, primary dermal fibroblasts, ASCs); experiment: In vitro cytotoxicity model overall (cell type not given); format: cell-based, human
Experimental: All of the samples were prepared on the day of the assays. Each product/stock solution was diluted with CfM or CAM until the desired concentration ranges were obtained for the in vitro cytotoxicity assessments, based on OECD recommendations (i.e., with serial dilutions). The tested CLX- and HOCl-based biocides were used as received, apart from dilution with cell culture medium. To perform the cytotoxicity assays, WCB II vials of primary cells and vials of control cell lines (i.e., HaCaT keratinocytes) were thawed and were expanded to confluency. The cells were then harvested and seeded in 24-well plates at densities of 3 × 10^3 and 6 × 10^3 cells/well. The cultures were maintained for 7 days as described previously. The test items were then dispensed in the wells of the culture plates, following dilution in CfM or CAM. The Vashe® source was tested for cytotoxicity at final HOCl concentrations of 786-6290 μM. The Brio® source was tested for cytotoxicity at final HOCl concentrations of 596-4766 μM. The CLX source was tested for cytotoxicity at final concentrations of 0.2-1978 μM. […] The retained test item experimental concentrations were selected based on the OECD […] guideline and on high-throughput screening principles. After 48 h of cell treatment with the test items, the solutions were removed and a 10% solution of CellTiter® (Promega, Madison, WI, USA) in CfM or CAM was added in every well for assessment of cellular viability. The plates were then placed in the incubator for 90 min. The solutions were transferred to a 96-well plate and were analyzed on a Varioskan LUX 3020 spectrophotometer (ThermoFisher Scientific, Waltham, MA, USA) at 490 nm with agitation. Following the cytotoxicity model validation in 24-well plates, the same procedure was used for optimization and upscaling in 96-well plates. The culture plates were seeded with 5 × 10^3 cells/well (i.e., for primary cells) and 10^4 cells/well (i.e., for HaCaT keratinocytes) in a CfM volume of 100 μL per well. […]

[2] = test system: most medically relevant test strains of yeast; design: method as in PMID 27088128, PMID 27645246; details: cited from earlier work
[3] = test system: HaCaT keratinocytes; experiment: In vitro cytotoxicity assay (CellTiter viability) in HaCaT keratinocytes; format: cell-based, human; details: 48 h treatment
Experimental: (§1) All of the samples were prepared on the day of the assays. Each product/stock solution was diluted with CfM or CAM until the desired concentration ranges were obtained for the in vitro cytotoxicity assessments, based on OECD recommendations (i.e., with serial dilutions). The tested CLX- and HOCl-based biocides were used as received, apart from dilution with cell culture medium.
(§2) To perform the cytotoxicity assays, WCB II vials of primary cells and vials of control cell lines (i.e., HaCaT keratinocytes) were thawed and were expanded to confluency. The cells were then harvested and seeded in 24-well plates at densities of 3 × 10^3 and 6 × 10^3 cells/well. The cultures were maintained for 7 days as described previously. The test items were then dispensed in the wells of the culture plates, following dilution in CfM or CAM. […] Regarding the AR-12 antifungal compound, cytotoxicity was assessed for a concentration range of 0.27–139 µM. […]
(§3) After 48 h of cell treatment with the test items, the solutions were removed and a 10% solution of CellTiter® (Promega, Madison, WI, USA) in CfM or CAM was added in every well for assessment of cellular viability. […] The solutions were transferred to a 96-well plate and were analyzed on a Varioskan LUX 3020 spectrophotometer (ThermoFisher Scientific, Waltham, MA, USA) at 490 nm with agitation. […]

[4] = test system: adipose-derived stem cells (ASC); experiment: In vitro cytotoxicity assay (CellTiter viability) in polydactyly-derived ASCs; format: cell-based, human
Experimental: as §1, §2, §3

[5] = test system: primary dermal fibroblasts; experiment: In vitro cytotoxicity assay (CellTiter viability) in polydactyly-derived primary dermal fibroblasts; format: cell-based, human
Experimental: All of the samples were prepared on the day of the assays. Each product/stock solution was diluted with CfM or CAM until the desired concentration ranges were obtained for the in vitro cytotoxicity assessments, based on OECD recommendations (i.e., with serial dilutions). The tested CLX- and HOCl-based biocides were used as received, apart from dilution with cell culture medium. To perform the cytotoxicity assays, WCB II vials of primary cells and vials of control cell lines (i.e., HaCaT keratinocytes) were thawed and were expanded to confluency. The cells were then harvested and seeded in 24-well plates at densities of 3 × 10^3 and 6 × 10^3 cells/well. The cultures were maintained for 7 days as described previously. The test items were then dispensed in the wells of the culture plates, following dilution in CfM or CAM. The Vashe® source was tested for cytotoxicity at final HOCl concentrations of 786-6290 μM. The Brio® source was tested for cytotoxicity at final HOCl concentrations of 596-4766 μM. The CLX source was tested for cytotoxicity at final concentrations of 0.2-1978 μM. […] The solutions were transferred to a 96-well plate and were analyzed on a Varioskan LUX 3020 spectrophotometer (ThermoFisher Scientific, Waltham, MA, USA) at 490 nm with agitation. […]

Structure (SMILES): OCl [HOCl, hypochlorous acid]
- comparative in vitro cytotoxicity ([1]; Figures 4-6): less toxicity than CLX
- dose showing in vitro cytotoxicity ([1]; in vitro data gathered herein, 50 times lower than 100–200 ppm in-use doses): 4 µg/mL

Structure (SMILES): [H]/N=C(\N/C(=N/[H])NCCCCCCNC(=N)NC(=N)Nc1ccc(Cl)cc1)Nc1ccc(Cl)cc1 [CLX, chlorhexidine]
- dilution needed to avoid toxicity in cultured cells ([1]; human, 48 h): 10- and 100

Structure (SMILES): NCC(=O)Nc1ccc(-n2nc(C(F)(F)F)cc2-c2ccc3c(ccc4ccccc43)c2)cc1 [AR-12]
- MIC [2]: 8 µM (≈ 3.68 µg/mL)
- IC50 [3]: 9.96 ± 0.35 µM
- cytotoxicity values [4]: 4 to 8 µg/mL
- cytotoxicity values [5]: 4 to 8 µg/mL
- IC50 ([5]; 48 h treatment, CellTiter viability): 10.7 ± 0.27 µM
